Reference: PubChem BioAssay AID2060901 (Molecular Pharmacology Branch, DTP, NCI, 2025)

Test system: 422866-222-R5-J1-PDC complex spheroids viability
Experiment: Anticancer human tumor 422866-222-R5-J1-PDC patient-derived pancreatic adenocarcinoma cell line growth inhibition [RAS]
Settings: for viability, T/C: stronger effect = lower value
How it was run: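 Agents were tested in combination matrices in half-log decrements from a top concentration at or near clinical Cmax (10 microM if undetermined). Targets were multi-cell spheroids of tumour lines plus HUVEC and MSC stromal cells.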

[1] = curve of first compound, second compound 0.000949 µM
[2] = curve of first compound, second compound 0.003 µM
[3] = curve of first compound, second compound 0.00949 µM
[4] = curve of first compound, second compound 0.03 µM
[5] = curve of first compound, second compound 0.0949 µM
[6] = curve of first compound, second compound 0.3 µM
[7] = second compound 0.000949 µM, first compound 0.0316 µM
[8] = second compound 0.000949 µM, first compound 0.1 µM
[9] = second compound 0.000949 µM, first compound 0.316 µM
[10] = second compound 0.000949 µM, first compound 1 µM
[11] = second compound 0.003 µM, first compound 0.0316 µM
[12] = second compound 0.003 µM, first compound 0.1 µM
[13] = second compound 0.003 µM, first compound 0.316 µM
[14] = second compound 0.003 µM, first compound 1 µM
[15] = second compound 0.00949 µM, first compound 0.0316 µM
[16] = second compound 0.00949 µM, first compound 0.1 µM
[17] = second compound 0.00949 µM, first compound 0.316 µM
[18] = second compound 0.00949 µM, first compound 1 µM
[19] = second compound 0.03 µM, first compound 0.0316 µM
[20] = second compound 0.03 µM, first compound 0.1 µM
[21] = second compound 0.03 µM, first compound 0.316 µM
[22] = second compound 0.03 µM, first compound 1 µM
[23] = second compound 0.0949 µM, first compound 0.0316 µM
[24] = second compound 0.0949 µM, first compound 0.1 µM
[25] = second compound 0.0949 µM, first compound 0.316 µM
[26] = second compound 0.0949 µM, first compound 1 µM
[27] = second compound 0.3 µM, first compound 0.0316 µM
[28] = second compound 0.3 µM, first compound 0.1 µM
[29] = second compound 0.3 µM, first compound 0.316 µM
[30] = second compound 0.3 µM, first compound 1 µM
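Note: spheroids exposed to compounds for 7 days.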
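Throughout, for viability, T/C: 100% = DMSO vehicle control viability.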

For `CC(C)NCC(C(=O)N1CCN(c2ncnc3c2C(C)CC3O)CC1)c1ccc(Cl)cc1` (configuration not stated) + CCn1c(-c2cc(N3CCN(C)CC3)cnc2C(C)OC)c2c3cc(ccc31)-c1csc(n1)CC(NC(=O)C1CC1C)C(=O)N1CCCC(N1)C(=O)OCC(C)(C)C2, the IC50 [1] was less than 31.6 nM, the IC50 [2] was less than 31.6 nM and the IC50 [3] was less than 31.6 nM. It also gave an IC50 [4] of less than 31.6 nM, an IC50 [5] of less than 31.6 nM and an IC50 [6] of less than 31.6 nM. It also gave a viability, T/C [7] of 29.7%, a viability, T/C [8] of 25.9% and a viability, T/C [9] of 20.5%. It also gave a viability, T/C [10] of 21.1%, a viability, T/C (second compound 0.000949 µM, first compound 3.16 µM) of 27.7% and a viability, T/C (second compound 0.000949 µM, first compound 10 µM) of 33.9%. It also gave a viability, T/C [11] of 25.2%, a viability, T/C [12] of 20.6% and a viability, T/C [13] of 17.4%. For the same compound, the viability, T/C [14] was 13.4%, the viability, T/C (second compound 0.003 µM, first compound 3.16 µM) was 17.8% and the viability, T/C (second compound 0.003 µM, first compound 10 µM) was 17.7%. For the same compound, the viability, T/C [15] was 20.4%, the viability, T/C [16] was 15.2% and the viability, T/C [17] was 14.7%. For the same compound, the viability, T/C [18] was 11.6%, the viability, T/C (second compound 0.00949 µM, first compound 3.16 µM) was 14.1% and the viability, T/C (second compound 0.00949 µM, first compound 10 µM) was 15.7%. The viability, T/C [19] was 20.1%, the viability, T/C [20] was 15.8% and the viability, T/C [21] was 14.9%. It also gave a viability, T/C [22] of 11.9%, a viability, T/C (second compound 0.03 µM, first compound 3.16 µM) of 11.9% and a viability, T/C (second compound 0.03 µM, first compound 10 µM) of 13.8%. It also gave a viability, T/C [23] of 16.5%, a viability, T/C [24] of 17.4% and a viability, T/C [25] of 13.1%. It also gave a viability, T/C [26] of 11.7%, a viability, T/C (second compound 0.0949 µM, first compound 3.16 µM) of 12.4% and a viability, T/C (second compound 0.0949 µM, first compound 10 µM) of 13.8%. For the same compound, the viability, T/C [27] was 18.8%, the viability, T/C [28] was 19.6% and the viability, T/C [29] was 14.2%. It also gave a viability, T/C [30] of 11.5%, a viability, T/C (second compound 0.3 µM, first compound 3.16 µM) of 12.9% and a viability, T/C (second compound 0.3 µM, first compound 10 µM) of 13.8%.

Compound `C=CC(=O)N1CCN(c2nc(OCC3CCCN3C)nc3c(F)c(-c4nc(N)cc(C)c4C(F)(F)F)c(Cl)cc23)C(C)C1` (configuration not stated) + C#Cc1c(F)ccc2cc(O)cc(-c3ncc4c(N5CC6CCC(C5)N6)nc(OCC56CCCN5CC(F)C6)nc4c3F)c12 has an IC50 (curve of first compound, second compound 0.0316 µM) of less than 3.16 nM, an IC50 (curve of first compound, second compound 0.1 µM) of less than 3.16 nM and an IC50 (curve of first compound, second compound 0.316 µM) of less than 3.16 nM. For the same compound, the IC50 (curve of first compound, second compound 1 µM) was less than 3.16 nM, the IC50 (curve of first compound, second compound 3.16 µM) was less than 3.16 nM and the IC50 (curve of first compound, second compound 10 µM) was less than 3.16 nM. The viability, T/C (second compound 0.0316 µM, first compound 0.00316 µM) was 29.7%, the viability, T/C (second compound 0.0316 µM, first compound 0.01 µM) was 24% and the viability, T/C (second compound 0.0316 µM, first compound 0.0316 µM) was 21.9%. The viability, T/C (second compound 0.0316 µM, first compound 0.1 µM) was 19.4%, the viability, T/C (second compound 0.0316 µM, first compound 0.316 µM) was 19% and the viability, T/C (second compound 0.0316 µM, first compound 1 µM) was 22%. The viability, T/C (second compound 0.1 µM, first compound 0.00316 µM) was 28.4%, the viability, T/C (second compound 0.1 µM, first compound 0.01 µM) was 24.6% and the viability, T/C (second compound 0.1 µM, first compound 0.0316 µM) was 21.2%. The viability, T/C (second compound 0.1 µM, first compound 0.1 µM) was 18.6%, the viability, T/C (second compound 0.1 µM, first compound 0.316 µM) was 20.9% and the viability, T/C (second compound 0.1 µM, first compound 1 µM) was 21.3%. For the same compound, the viability, T/C (second compound 0.316 µM, first compound 0.00316 µM) was 29.6%, the viability, T/C (second compound 0.316 µM, first compound 0.01 µM) was 24.6% and the viability, T/C (second compound 0.316 µM, first compound 0.0316 µM) was 25.7%. For the same compound, the viability, T/C (second compound 0.316 µM, first compound 0.1 µM) was 19.2%, the viability, T/C (second compound 0.316 µM, first compound 0.316 µM) was 21% and the viability, T/C (second compound 0.316 µM, first compound 1 µM) was 21%. The viability, T/C (second compound 1 µM, first compound 0.00316 µM) was 20.5%, the viability, T/C (second compound 1 µM, first compound 0.01 µM) was 21.4% and the viability, T/C (second compound 1 µM, first compound 0.0316 µM) was 21.7%. The viability, T/C (second compound 1 µM, first compound 0.1 µM) was 19.8%, the viability, T/C (second compound 1 µM, first compound 0.316 µM) was 18.8% and the viability, T/C (second compound 1 µM, first compound 1 µM) was 17.5%. It also gave a viability, T/C (second compound 3.16 µM, first compound 0.00316 µM) of 21.6%, a viability, T/C (second compound 3.16 µM, first compound 0.01 µM) of 18.1% and a viability, T/C (second compound 3.16 µM, first compound 0.0316 µM) of 21%. For the same compound, the viability, T/C (second compound 3.16 µM, first compound 0.1 µM) was 22.5%, the viability, T/C (second compound 3.16 µM, first compound 0.316 µM) was 19% and the viability, T/C (second compound 3.16 µM, first compound 1 µM) was 22.6%. For the same compound, the viability, T/C (second compound 10 µM, first compound 0.00316 µM) was 17.9%, the viability, T/C (second compound 10 µM, first compound 0.01 µM) was 20.3% and the viability, T/C (second compound 10 µM, first compound 0.0316 µM) was 20.8%. For the same compound, the viability, T/C (second compound 10 µM, first compound 0.1 µM) was 17.5%, the viability, T/C (second compound 10 µM, first compound 0.316 µM) was 20.7% and the viability, T/C (second compound 10 µM, first compound 1 µM) was 17.6%.

In the case of `CC1(C)CCC(Nc2ncc(C(F)(F)F)c(-c3c[nH]c4c(P(C)(C)=O)c(C#N)ccc34)n2)CN1` (configuration not stated), the viability, T/C (compound 0.003 µM) is reported as 93% [middle of 4 runs], the viability, T/C (compound 0.00949 µM) is reported as 78.1% [middle of 4 runs] and the viability, T/C (compound 0.03 µM) is reported as 73.1% [middle of 4 runs]. For the same compound, the viability, T/C (compound 0.0949 µM) was 67.2% [middle of 4 runs], the viability, T/C (compound 0.3 µM) was 69.9% [middle of 4 runs] and the IC50 (curve of compound) was greater than 300 nM.

For `CCN1CCN(Cc2ccc(Nc3ncc(F)c(-c4cc(F)c5nc(C)n(C(C)C)c5c4)n3)nc2)CC1` + CCn1c(-c2cc(N3CCN(C)CC3)cnc2C(C)OC)c2c3cc(ccc31)-c1csc(n1)CC(NC(=O)C1CC1C)C(=O)N1CCCC(N1)C(=O)OCC(C)(C)C2, the IC50 [1] was less than 3.16 nM, the IC50 [2] was less than 3.16 nM and the IC50 [3] was less than 3.16 nM. For the same compound, the IC50 [4] was less than 3.16 nM, the IC50 [5] was less than 3.16 nM and the IC50 [6] was less than 3.16 nM. The viability, T/C (second compound 0.000949 µM, first compound 0.00316 µM) was 34.5%, the viability, T/C (second compound 0.000949 µM, first compound 0.01 µM) was 29.8% and the viability, T/C [7] was 26.8%. It also gave a viability, T/C [8] of 29.4%, a viability, T/C [9] of 29.5% and a viability, T/C [10] of 43.6%. It also gave a viability, T/C (second compound 0.003 µM, first compound 0.00316 µM) of 25.6%, a viability, T/C (second compound 0.003 µM, first compound 0.01 µM) of 21.5% and a viability, T/C [11] of 21.9%. For the same compound, the viability, T/C [12] was 22.6%, the viability, T/C [13] was 25% and the viability, T/C [14] was 34.7%. For the same compound, the viability, T/C (second compound 0.00949 µM, first compound 0.00316 µM) was 18.7%, the viability, T/C (second compound 0.00949 µM, first compound 0.01 µM) was 17.4% and the viability, T/C [15] was 18.3%. For the same compound, the viability, T/C [16] was 16.3%, the viability, T/C [17] was 23.1% and the viability, T/C [18] was 28.6%. For the same compound, the viability, T/C (second compound 0.03 µM, first compound 0.00316 µM) was 18.9%, the viability, T/C (second compound 0.03 µM, first compound 0.01 µM) was 22.9% and the viability, T/C [19] was 17.6%. For the same compound, the viability, T/C [20] was 17.3%, the viability, T/C [21] was 21.8% and the viability, T/C [22] was 31.1%. It also gave a viability, T/C (second compound 0.0949 µM, first compound 0.00316 µM) of 19.7%, a viability, T/C (second compound 0.0949 µM, first compound 0.01 µM) of 18.4% and a viability, T/C [23] of 18.8%. For the same compound, the viability, T/C [24] was 17.9%, the viability, T/C [25] was 24.5% and the viability, T/C [26] was 31.4%. The viability, T/C (second compound 0.3 µM, first compound 0.00316 µM) was 17.9%, the viability, T/C (second compound 0.3 µM, first compound 0.01 µM) was 19.8% and the viability, T/C [27] was 20.9%. It also gave a viability, T/C [28] of 19.1%, a viability, T/C [29] of 25.9% and a viability, T/C [30] of 33.5%.
